Assay results from patent US20240182472A1, “INDAZOLE PYRIDONE COMPOUNDS AND USES THEREOF” (Bluejay Therapeutics, Inc., priority 2022, published 2024).

Columns and labels:
[1] = system: HBV S-antigen secretion; test: HBsAg assay (HepG2 HBV S-antigen secretion biological assay); assay type: cell-based; conditions: Hepatitis B virus, HepG2.2.15, 72 h, read-out: EC50, HBV S-antigen secretion
Experimental: HepG2.2.15 cells were grown in flasks microscopically and seeded into 96-well plates at a concentration of 6.0×10^4 cells/well and incubated at 37° C., 5% CO2 overnight.
Source plate preparation. The stock concentration of reference compound and test compounds is 20 mM. Firstly, manually diluted the compound to obtain the first concentration points of 10 μM and 200 μM, respectively. Then a 3-fold, 8 points serial dilution is performed to obtain the 200× source plate.
Source plate compounds were pipetted as follows: 3 μL 200× source plate compounds into sterile 2 mL 96 well plate which contain 297 μL 2% FBS Medium, mix well and transfer 100 μL/well to corresponding cell culture plates. Therefore, the test conditions of the final compounds is 1 μM initiation, 3-fold serial dilution, and 8 concentration points in duplicate.
Incubate the cells at 37° C., 5% CO2 for three days.
24 hours post-seeding, the cells were treated with 200 μl/well of media containing serially diluted compounds in DMSO. DMSO alone was used as the no drug control. The final DMSO concentration in all wells was 0.5%.
The HBsAg kit (Auto Biology-CL 0310) was used to determine the level of secreted HBVsAg. The HBSAg assay was performed as follows: • a) Blance the ELISA kit at room temperature for 30 minutes. • b) Add 50 μL standard solution, sample, positive and negative control to each well of the microplate in the kit. • c) Add 50 μL HBsAg enzyme conjugate to each well. • d) Attach the plate membrane, oscillate for 60 seconds, and incubate at 37° C. for 60 minutes. • e) Add 350 μL washing buffer to each well, shake slightly, discard liquid, repeat 6 times. Then pat 5 times on an absorbent paper towel to dry the hole. • f) Add 50 μL mixture of reagent A and B to each well. Oscillate the microplate for 10 seconds. • g) Cover the plate membrane and incubate at room temperature for 10 minutes. Read the luminescent signal using Biotek-Synergy 2.
Compounds inhibition against HBsAg at different concentrations are calculated by the following formula:
Inhibition %=(1−value of sample/ave. value of control)×100
50% effective concentrations (EC50) and were calculated with the GraphPad Prism software.

[2] = In vivo pharmacokinetic study, oral, plasma and liver, rat; parameters: species or system Sprague Dawley rats; conditions: for Observed level of "active metabolite" AUC0→last, Liver / Observed level of "active metabolite" AUC0→last, Plasma: active metabolite I.6 released after oral prodrug 32 mpk, Sprague-Dawley rats, n = 3; for concentrations of the dosed prodrug itself in plasma and tissue: single PO administration at 32 mg/kg in male SD rats, PK parameters not determined
Experimental: The compounds of this invention were tested orally administered in a formulation of 25% PEG 400: 10% solutol: 65% water with a 5 mL/Kg solution across species of CD-1 mice, C57BL/J6 mice, or Sprague Dawley rats following IACUC guidelines. The rat PK of Compound I.9 and Compound I.10 PO dose of 32 mpk exemplifies the methodology used across species.
The purpose of this rat PK study was to determine the pharmacokinetics of Compound I.9, Compound I.6 and Compound I.10 in plasma following oral gavage administration of Compound I.9 and Compound I.10 to male SD rats. For PO groups, the liver and plasma concentration were measured at 1, 2, 6 and 10 h post-dose. Concentrations of Compound I.9, Compound I.6 and Compound I.10 in plasma and tissue samples were determined by a liquid chromatography tandem mass spectrometry (LC-MS/MS) method. Oral (PO) Dose—Groups 1 and 2 Compound I.9 was prepared as a clear solution in 25% PEG400+10% Solutol+65% water (Adjust the final pH to 7˜8). Groups 3 and 4 Compound I.10 was prepared as a homogeneous suspension in 25% PEG400+10% Solutol+65% water (Adjust the final pH to 7˜8). Blood (about 0.2 mL) was collected at each time point via jugular vein puncture from each study animal into a tube A. The following 4-mix stabilizer for esterase inhibition was added into a pre-chilled commercial tube B containing potassium (K2) EDTA (0.85-1.15 mg) in advance. Then the blood in the tube A will be accurately transferred (4-mix stabilizer: blood, 1:10 (v:v)) into the tube B and placed on wet ice until centrifugation.
The following 4-mix stabilizer was added into the cold homogenizing buffer (MeOH/15 mM PBS 1:2) in advance. Then each tissue was weighed and added the cold homogenizing buffer with stabilizer at the ratio of 1:9 (1 g tissue with 9 mL buffer), then homogenized on wet ice. The tissue homogenate was kept at −60° C. or lower until LC-MS/MS analysis.
Bioanalytical Analysis The concentrations of Compound I.9, Compound I.6 and Compound I.10 in plasma and tissue were determined by using an LC-MS/MS method. Instrumentation and conditions for
Compound I.9, Compound I.10 and Compound I.6 in plasma and tissue homogenate. • LC parameters • Equipment: ACQUITY UPLC System • Analytical column: ACQUITY UPLC HSS T3 1.8 μm 2.1×50 mm • Inject volume: 5 μL for plasma; 3.5 μL for tissue homogenate • Mobile phase A: 0.1% FA & 2 mmol/L HCOONH4 in water/ACN (v/v, 95:5) • Mobile phase B: 0.1% FA & 2 mmol/L HCOONH4 in ACN/water (v/v, 95:5) • Elution Mode: Gradient
• Mass spectrometer: Triple Quad 6500 plus • Ionization mode: ESI (+) • Detective mode: MRM

Structure (SMILES)	EC50 [1]	Observed level of "active metabolite" AUC0→last, Liver [2]	Observed level of "active metabolite" AUC0→last, Plasma [2]	concentrations of the dosed prodrug itself in plasma and tissue [2]
CCOC(=O)CCCCCCOc1cccc2c3n(nc12)C[C@@H](C(C)(C)C)n1cc(C(=O)O)c(=O)cc1-3 [I.3, (R)-6-(tert-butyl)-10-((7-ethoxy-7-oxoheptyl)oxy)-2-oxo-6,7-dihydro-2H-pyrido[2′,1′:3,4]pyrazino[1,2-b]indazole-3-carboxylic acid]	11.8 nM			
CC(C)OC(=O)CCCCCCCOc1cccc2c3n(nc12)C[C@@H](C(C)(C)C)n1cc(C(=O)O)c(=O)cc1-3 [I.9, (R)-6-(tert-butyl)-10-((8-isopropoxy-8-oxooctyl)oxy)-2-oxo-6,7-dihydro-2H-pyrido[2′,1′:3,4]pyrazino[1,2-b]indazole-3-carboxylic acid]	5.3 ± 0.9 nM	29367 ng·h/g	290 ng·h/g	most concentrations were below the lower limit of quantitation
CCCCCCCOC(=O)CCCCCCOc1cccc2c3n(nc12)C[C@@H](C(C)(C)C)n1cc(C(=O)O)c(=O)cc1-3 [I.4, (R)-6-(tert-butyl)-10-((7-(heptyloxy)-7-oxoheptyl)oxy)-2-oxo-6,7-dihydro-2H-pyrido[2′,1′:3,4]pyrazino[1,2-b]indazole-3-carboxylic acid]	14 nM			
CC(C)(C)[C@@H]1Cn2nc3c(OCCCCCCCCC(=O)O)cccc3c2-c2cc(=O)c(C(=O)O)cn21 [I.13, (R)-6-(tert-butyl)-10-((8-carboxyoctyl)oxy)-2-oxo-6,7-dihydro-2H-pyrido[2′,1′:3,4]pyrazino[1,2-b]indazole-3-carboxylic acid]	1.2 ± 0.5 nM			
CCOC(=O)CCCCCCCOc1cccc2c3n(nc12)C[C@@H](C(C)(C)C)n1cc(C(=O)O)c(=O)cc1-3 [I.7, (R)-6-(tert-butyl)-10-((8-ethoxy-8-oxooctyl)oxy)-2-oxo-6,7-dihydro-2H-pyrido[2′,1′:3,4]pyrazino[1,2-b]indazole-3-carboxylic acid]	7.1 nM			
CC(C)(C)[C@@H]1Cn2nc3c(OCCCCCC(=O)O)cccc3c2-c2cc(=O)c(C(=O)O)cn21 [I.1, (R)-6-(tert-butyl)-10-((5-carboxypentyl)oxy)-2-oxo-6,7-dihydro-2H-pyrido[2′,1′:3,4]pyrazino[1,2-b]indazole-3-carboxylic acid]	25.5 nM			
CCCCOC(=O)CCCCCCCOc1cccc2c3n(nc12)C[C@@H](C(C)(C)C)n1cc(C(=O)O)c(=O)cc1-3 [I.10, (R)-10-((8-butoxy-8-oxooctyl)oxy)-6-(tert-butyl)-2-oxo-6,7-dihydro-2H-pyrido[2′,1′:3,4]pyrazino[1,2-b]indazole-3-carboxylic acid]	4 ± 0.8 nM	19444 ng·h/g	146 ng·h/g	most concentrations were below the lower limit of quantitation
